Test results from ChEMBL document CHEMBL2375337, “Synthesis and anti-H5N1 activity of chiral gossypol derivatives and its analogs implicated by a viral entry blocking mechanism” (Bioorg Med Chem Lett, 2013).
Several values for one entry are separate records, joined by “and”; a condition that tells them apart may be missing. Equal values may be shown once. Activity calls are given as the source filed them. The calls are words filed in the database; no cut-off is given here.

Tests used:
[1] = Selectivity index, ratio of cytotoxicity against MDCK cells to antiviral activity against H5N1 subtype; assay type: toxicity, cell-based; conditions: dog, read-out: Selectivity Index
[2] = Selectivity index, ratio of CC50 for MDCK cells to IC50 for Influenza A virus (A/Vietnam/1194/2004(H5N1)); assay type: functional
[3] = (§1) Cytotoxicity against MDCK cells by MTT assay; assay type: cell-based, Canis lupus familiaris; conditions: dog, MDCK cells
Influenza A virus [4] = test: Antiviral activity against Influenza A virus (A/Vietnam/1194/2004(H5N1)) infected in MDCK cells by plaque reduction assay; assay type: functional, organism-based
H5N1 subtype [5] = test: Antiviral activity against H5N1 subtype infected in MDCK cells; assay type: functional, organism-based; conditions: Influenza A virus
MDCK = test: as §1; assay type: cell-based, Canis lupus familiaris; conditions: dog, mdck
H5N1 subtype [6] = test: Inhibition of H5N1 subtype hemagglutinin adsorption into chicken RBC at 100 ug/mL
Influenza A virus [7] = test: Antiviral activity against Influenza A virus (A/Vietnam/1194/2004(H5N1)) infected in MDCK cells assessed as inhibition of viral entry at 20 uM treated 2 hrs prior to infection; assay type: functional, organism-based
Influenza A virus [8] = test: Antiviral activity against Influenza A virus (A/Vietnam/1194/2004(H5N1)) infected in MDCK cells assessed as inhibition of viral entry at 20 uM treated 2 hrs post infection; assay type: functional, organism-based
Influenza A virus [9] = test: Antiviral activity against Influenza A virus (A/Vietnam/1194/2004(H5N1)) infected in MDCK cells assessed as inhibition of viral entry at 20 uM treated at the time of infection; assay type: functional, organism-based
H5N1 subtype [10] = test: Inhibition of H5N1 subtype neuraminidase up to 20 uM
[11] = Influenza A virus, MDCK, read-out: IC50

| Compound | Ratio CC50/IC50 [2] | CC50 [3] | IC50 (Influenza A virus [4]; mdck, read-out: IC50) | CC50 (MDCK) | also measured |
| --- | --- | --- | --- | --- | --- |
| CC(=O)Oc1c(OC(C)=O)c(C(=O)O)c2c(OC(C)=O)c(-c3c(C)cc4c(C(C)C)c(OC(C)=O)c(OC(C)=O)c(C(=O)O)c4c3OC(C)=O)c(C)cc2c1C(C)C | 18.22 and 12.01 | 41.5 µM | 2.28 µM | – | selectivity ratio [1]: > 8.7; IC50 (Influenza A virus [4]; [11]): 3.46 µM; IC50 (H5N1 subtype [5]): 2.98 µM |
| COC(=O)[C@H](Cc1c[nH]c2ccccc12)N/C=C1\C(=O)C(O)=C(C(C)C)c2cc(C)c(-c3c(C)cc4c(c3O)/C(=C/N[C@@H](Cc3c[nH]c5ccccc35)C(=O)OC)C(=O)C(O)=C4C(C)C)c(O)c21 (stereo in doubt; (-)-11a) | >10.77 | > 36.3 µM | 3.37 µM | – | – |
| Cc1cc2c(c(O)c1-c1c(C)cc3c(c1O)/C(=C/N[C@@H](Cc1c[nH]c4ccccc14)C(=O)[O-])C(=O)C(O)=C3C(C)C)/C(=C/N[C@@H](Cc1c[nH]c3ccccc13)C(=O)[O-])C(=O)C(O)=C2C(C)C.[Na+].[Na+] (stereo in doubt; (-)-7a) | >67.26 | > 35.6 µM | 0.53 µM | – | – |
| COc1c(OC)c(C(=O)O)c2c(OC)c(-c3c(C)cc4c(C(C)C)c(OC)c(OC)c(C(=O)O)c4c3OC)c(C)cc2c1C(C)C | – | – | – | – | selectivity ratio [1]: > 0.33; IC50 (H5N1 subtype [5]): 158 µM |
| COc1c(OC)c(C=O)c2c(OC)c(-c3c(C)cc4c(C(C)C)c(OC)c(OC)c(C=O)c4c3OC)c(C)cc2c1C(C)C | – | – | – | – | selectivity ratio [1]: > 0.54; IC50 (H5N1 subtype [5]): 103 µM |
| Cc1cc2c(c(O)c1-c1c(C)cc3c(c1O)/C(=C/N[C@@H](C)C(=O)[O-])C(=O)C(O)=C3C(C)C)/C(=C/N[C@@H](C)C(=O)[O-])C(=O)C(O)=C2C(C)C.[Na+].[Na+] (stereo in doubt; (+)-5b) | 100.72 | – | 0.47 µM | 47.3 µM | – |
| Cc1cc2c(c(O)c1-c1c(C)cc3c(c1O)/C(=C/N[C@@H]1[C@@H](O)[C@H](O)[C@@H](CO)O[C@H]1O)C(=O)C(O)=C3C(C)C)/C(=C/N[C@@H]1[C@@H](O)[C@H](O)[C@@H](CO)O[C@H]1O)C(=O)C(O)=C2C(C)C | – | 21.8 µM | – | – | IC50 (Influenza A virus [4]; mdck): Not Active |
| Cc1cc2c(c(O)c1-c1c(C)cc3c(c1O)/C(=C/N[C@@H](C)C(=O)[O-])C(=O)C(O)=C3C(C)C)/C(=C/N[C@@H](C)C(=O)[O-])C(=O)C(O)=C2C(C)C.[Na+].[Na+] (stereo in doubt; (-)-5a) | >44.24 | > 47.3 µM | 1.07 µM | – | – |
| COC(=O)[C@H](C)N/C=C1\C(=O)C(O)=C(C(C)C)c2cc(C)c(-c3c(C)cc4c(c3O)/C(=C/N[C@@H](C)C(=O)OC)C(=O)C(O)=C4C(C)C)c(O)c21 (stereo in doubt; (-)-10a) | >25.2 | > 48.4 µM | 1.92 µM | – | – |
| Cc1cc2c(c(O)c1-c1c(C)cc3c(c1O)/C(=C/NC(C)(C)C(=O)[O-])C(=O)C(O)=C3C(C)C)/C(=C/NC(C)(C)C(=O)[O-])C(=O)C(O)=C2C(C)C.[Na+].[Na+] (stereo in doubt; (+)-9b) | 51.11 | – | 0.89 µM | 45.5 µM | – |
| Cc1cc2c(C(C)C)c(O)c(O)c(C(=O)O)c2c(O)c1-c1c(C)cc2c(C(C)C)c(O)c(O)c(C(=O)O)c2c1O | 18.62 and 15.82 | 60.6 µM | 1.95 µM | 36.3 µM | inhibition (H5N1 subtype [6]): inactive; inhibition (Influenza A virus [7]): inactive; selectivity ratio [1]: 10.5; inhibition (Influenza A virus [8]): inactive; inhibition (Influenza A virus [9]): inactive; IC50 (Influenza A virus [4]; [11]): 3.83 µM; inhibition (H5N1 subtype [10]): inactive; IC50 (H5N1 subtype [5]): 2.37 µM |
| COC(=O)[C@H](C)N/C=C1\C(=O)C(O)=C(C(C)C)c2cc(C)c(-c3c(C)cc4c(c3O)/C(=C/N[C@@H](C)C(=O)OC)C(=O)C(O)=C4C(C)C)c(O)c21 (stereo in doubt; (+)-10b) | 50.94 | – | 0.95 µM | 48.4 µM | – |
| Cc1cc2c(c(O)c1-c1c(C)cc3c(c1O)/C(=C/N[C@@H](Cc1c[nH]c4ccccc14)C(=O)[O-])C(=O)C(O)=C3C(C)C)/C(=C/N[C@@H](Cc1c[nH]c3ccccc13)C(=O)[O-])C(=O)C(O)=C2C(C)C.[Na+].[Na+] (stereo in doubt; (+)-7b) | 142.6 | – | 0.25 µM | 35.6 µM | – |
| CC[C@H](C)[C@H](N/C=C1\C(=O)C(O)=C(C(C)C)c2cc(C)c(-c3c(C)cc4c(c3O)/C(=C/N[C@H](C(=O)[O-])[C@@H](C)CC)C(=O)C(O)=C4C(C)C)c(O)c21)C(=O)[O-].[Na+].[Na+] (stereo in doubt; (+)-8b) | 132.03 | – | 0.32 µM | 42.2 µM | – |
| CC[C@H](C)[C@H](N/C=C1\C(=O)C(O)=C(C(C)C)c2cc(C)c(-c3c(C)cc4c(c3O)/C(=C/N[C@H](C(=O)[O-])[C@@H](C)CC)C(=O)C(O)=C4C(C)C)c(O)c21)C(=O)[O-].[Na+].[Na+] (stereo in doubt; (-)-8a) | >58.68 | > 42.2 µM | 0.72 µM | – | – |
| NC12CC3CC(CC(C3)C1)C2 [AMANTADINE] | >57.39 | > 220 µM | – | – | selectivity ratio [1]: > 57.4; IC50 (Influenza A virus [4]; [11]): 3.84 µM; IC50 (H5N1 subtype [5]): 3.84 µM |
| Cc1cc2c(c(O)c1-c1c(C)cc3c(c1O)/C(=C/N[C@H](C(=O)[O-])C(C)C)C(=O)C(O)=C3C(C)C)/C(=C/N[C@H](C(=O)[O-])C(C)C)C(=O)C(O)=C2C(C)C.[Na+].[Na+] (stereo in doubt; (-)-6a) | >16.66 | > 43.8 µM | 2.63 µM | – | – |
| Cc1cc2c(C(C)C)c(O)c(O)c(C=O)c2c(O)c1-c1c(C)cc2c(C(C)C)c(O)c(O)c(C=O)c2c1O [GOSSYPOL] | – | 35.4 µM | 3.82 µM and 1.87 µM | – | inhibition (H5N1 subtype [6]): inactive; inhibition (Influenza A virus [7]): inactive; selectivity ratio [1]: 1.65; inhibition (Influenza A virus [8]): inactive; inhibition (Influenza A virus [9]): inactive; inhibition (H5N1 subtype [10]): inactive; IC50 (H5N1 subtype [5]): 2.14 µM |
| Cc1cc2c(c(O)c1-c1c(C)cc3c(c1O)/C(=C/N[C@@H](C)C(=O)O)C(=O)C(O)=C3C(C)C)/C(=C/N[C@@H](C)C(=O)O)C(=O)C(O)=C2C(C)C (stereo in doubt; (-)-5a) | – | – | – | – | inhibition (H5N1 subtype [6]): inactive; inhibition (Influenza A virus [7]): inactive; inhibition (Influenza A virus [8]): inactive; inhibition (Influenza A virus [9]): inactive; inhibition (H5N1 subtype [10]): inactive |
| COC(=O)[C@H](Cc1c[nH]c2ccccc12)N/C=C1\C(=O)C(O)=C(C(C)C)c2cc(C)c(-c3c(C)cc4c(c3O)/C(=C/N[C@@H](Cc3c[nH]c5ccccc35)C(=O)OC)C(=O)C(O)=C4C(C)C)c(O)c21 (stereo in doubt; (+)-11b) | 22.68 | – | 1.6 µM | 36.3 µM | – |
| Cc1cc2c(c(O)c1-c1c(C)cc3c(c1O)/C(=C/NC(C)(C)C(=O)[O-])C(=O)C(O)=C3C(C)C)/C(=C/NC(C)(C)C(=O)[O-])C(=O)C(O)=C2C(C)C.[Na+].[Na+] (stereo in doubt; (-)-9a) | 31.96 | 50.5 µM | – | – | IC50 (Influenza A virus [4]; [11]): 1.58 µM |
| Cc1cc2c(c(O)c1-c1c(C)cc3c(c1O)/C(=C/N[C@H](C(=O)[O-])C(C)C)C(=O)C(O)=C3C(C)C)/C(=C/N[C@H](C(=O)[O-])C(C)C)C(=O)C(O)=C2C(C)C.[Na+].[Na+] (stereo in doubt; (+)-6b) | 34.5 | – | 1.27 µM | 43.8 µM | – |
| Cc1cc2c(c(O)c1-c1c(C)cc3c(c1O)/C(=C/N[C@@H](C)C(=O)O)C(=O)C(O)=C3C(C)C)/C(=C/N[C@@H](C)C(=O)O)C(=O)C(O)=C2C(C)C (stereo in doubt; (+)-5b) | – | – | – | – | inhibition (H5N1 subtype [6]): inactive; inhibition (Influenza A virus [7]): inactive; inhibition (Influenza A virus [8]): inactive; inhibition (Influenza A virus [9]): inactive; inhibition (H5N1 subtype [10]): inactive |
